Measured values: patent US11299492B2, “JAK kinase inhibitor compounds for treatment of respiratory disease” (THERAVANCE BIOPHARMA R&D IP, LLC, priority 2015, dated 2022)

Columns and labels:
[1] = tested on: IL-13 induced STAT6 phosphorylation in BEAS-2B human lung epithelial cells; assay: AlphaScreen JAK1 cellular potency assay (BEAS-2B); assay type: cell-based; settings: for BEAS-2B pIC50: IL-13 induced STAT6 phosphorylation, BEAS-2B cells; for fold less potent than the corresponding compound of the invention in the BEAS-2B cellular assay: C-1 vs Ex 1, C-2 vs Ex 7, C-3 vs Ex 13, C-4 vs Ex 6
Description: The AlphaScreen JAK1 cellular potency assay was carried out by measuring interleukin-13 (IL-13, R&D Systems) induced STAT6 phosphorylation in BEAS-2B human lung epithelial cells (ATCC). The anti-STAT6 antibody (Cell Signaling Technologies) was conjugated to AlphaScreen acceptor beads (Perkin Elmer), while the anti-pSTAT6 (pTyr641) antibody (Cell Signaling Technologies) was biotinylated using EZ-Link Sulfo-NHS-Biotin (Thermo Scientific).
BEAS-2B cells were grown at 37° C. in a 5% CO2 humidified incubator in 50% DMEM/50% F-12 medium (Life Technologies) supplemented with 10% FBS (Hyclone), 100 U/mL penicillin, 100 μg/mL streptomycin (Life Technologies), and 2 mM GlutaMAX (Life Technologies). On day 1 of the assay, cells were seeded at a 7,500 cells/well density in white poly-D-lysine-coated 384-well plates (Corning) with 25 μL medium, and were allowed to adhere overnight in the incubator. On day 2 of the assay, the medium was removed and replaced with 12 L of assay buffer (Hank's Balanced Salt Solution/HBSS, 25 mM HEPES, and 1 mg/ml bovine serum albumin/BSA) containing dose-responses of test compounds. Compounds were serially diluted in DMSO and then diluted another 1000-fold in media to bring the final DMSO concentration to 0.1%. Cells were incubated with test compounds at 37° C. for 1 h, and followed by the addition of 12 μl of pre-warmed IL-13 (80 ng/ml in assay buffer) for stimulation. After incubating at 37° C. for 30 min, the assay buffer (containing compound and IL-13) was removed, and 10 μl of cell lysis buffer (25 mM HEPES, 0.1% SDS, 1% NP-40, 5 mM MgCl2, 1.3 mM EDTA, 1 mM EGTA, and supplement with Complete Ultra mini protease inhibitors and PhosSTOP from Roche Diagnostics). The plates were shaken at ambient temperature for 30 min before the addition of detection reagents. A mixture of biotin-anti-pSTAT6 and anti-STAT6 conjugated acceptor beads was added first and incubated at ambient temperature for 2 h, followed by the addition of streptavidin conjugated donor beads (Perkin Elmer). After a minimum of 2 h incubation, the assay plates were read on the EnVision plate reader.
Results were expressed as the negative logarithm of the IC50 value, pIC50.

[2] = tested on: IL-13 induced pSTAT6 induction in lung tissue; assay: Murine model of IL-13 induced pSTAT6 induction in lung tissue; assay type: in vivo; settings: mouse lung; for pSTAT6 inhibition in the pharmacodynamic assay: IL-13 challenge; for lung concentration smaller than that of the corresponding compound of the invention by a factor: pharmacodynamic assay, C-1 vs Ex 1, C-2 vs Ex 7, C-3 vs Ex 13, C-4 vs Ex 6
Description: I1-13 is an important cytokine underlying the pathophysiology of asthma (Kudlacz et al. Eur. J Pharmacol, 2008, 582, 154-161). IL-13 binds to cell surface receptors activating members of the Janus family of kinases (JAK) which then phosphorylate STAT6 and subsequently activates further transcription pathways. In the described model, a dose of IL-13 was delivered locally into the lungs of mice to induce the phosphorylation of STAT6 (pSTAT6) which is then measured as the endpoint.
Adult balb/c mice from Harlan were used in the assay. On the day of study, animals were lightly anesthetized with isoflurane and administered either vehicle or test compound (0.5 mg/mL, 50 μL total volume over several breaths) via oral aspiration. Animals were placed in lateral recumbency post dose and monitored for full recovery from anesthesia before being returned to their home cage. Four hours later, animals were once again briefly anesthetized and challenged with either vehicle or IL-13 ([…] total dose delivered, 50 μL total volume) via oral aspiration before being monitored for recovery from anesthesia and returned to their home cage. One hour after vehicle or IL-13 administration, lungs were collected for both pSTAT6 detection using an anti-pSTAT6 ELISA (rabbit mAb capture/coating antibody; mouse mAb detection/report antibody: anti-pSTAT6-pY641; secondary antibody: anti-mouse IgG-HRP) and analyzed for total drug concentration as described above in Assay 4.
Selected compounds of the invention were tested in the assay. Activity in the model is evidenced by a decrease in the level of pSTAT6 present in the lungs of treated animals at 5 hours compared to the vehicle treated, IL-13 challenged control animals. The difference between the control animals which were vehicle-treated, IL-13 challenged and the control animals which were vehicle-treated, vehicle challenged dictated the 0% and 100% inhibitory effect, respectively, in any given experiment.

[3] = Pharmacokinetics in plasma and lung in mouse; assay type: in vivo; settings: oral aspiration, lung AUC (μg hr/g) / plasma AUC (μg hr/mL)
Description: Plasma and lung levels of test compounds and ratios thereof were determined in the following manner. BALB/c mice from Charles River Laboratories were used in the assay. Test compounds were individually formulated in 20% propylene glycol in pH 4 citrate buffer at a concentration of 0.2 mg/mL and 50 uL of the dosing solution was introduced into the trachea of a mouse by oral aspiration. At various time points (typically 0.167, 2, 6, 24 hr) post dosing, blood samples were removed via cardiac puncture and intact lungs were excised from the mice. Blood samples were centrifuged (Eppendorf centrifuge, 5804R) for 4 minutes at approximately 12,000 rpm at 4° C. to collect plasma. Lungs were padded dry, weighed, and homogenized at a dilution of 1:3 in sterile water. Plasma and lung levels of test compound were determined by LC-MS analysis against analytical standards constructed into a standard curve in the test matrix. A lung to plasma ratio was determined as the ratio of the lung AUC in μg hr/g to the plasma AUC in μg hr/mL, where AUC is conventionally defined as the area under the curve of test compound concentration vs. time.

[4] = Dynamic moisture sorption assessment; assay type: physicochemical
Description: Dynamic moisture sorption (DMS) measurement was performed using a VTI atmospheric microbalance, SGA-100 system (VTI Corp., Hialeah, Fla. 33016). A weighed sample was used and the humidity was lowest possible value (close to 0% RH) at the start of the analysis. The DMS analysis consisted of an initial drying step (˜0% RH) for 120 minutes, followed by two cycles of sorption and desorption with a scan rate of 5% RH/step over the humidity range of 5% RH to 90% RH. The DMS run was performed isothermally at 25° C.

Question: For `CCc1cc(O)c(F)cc1-c1ccc2c(-c3nc4c([nH]3)CCN(C3CN(CCOC)C3)C4)n[nH]c2c1` [Example 1-6], which “BEAS-2B pIC50” value [1] is on record?
Answer: The value was “A (A represents a pIC50 value≥8 (IC50≤10 nM))”.

Question: With `CCc1cc(O)c(F)cc1-c1ccc2c(-c3nc4c([nH]3)CCN(C3CN(CCC#N)C3)C4)n[nH]c2c1` [Example 1-8] as the compound, how does the “BEAS-2B pIC50” value [1] read?
Answer: The value was “A (A represents a pIC50 value≥8 (IC50≤10 nM))”.

Question: For `CCc1cc(O)c(F)cc1-c1ccc2c(-c3nc4c([nH]3)CCN(C3CN(C5CCS(=O)(=O)C5)C3)C4)n[nH]c2c1` (stereo not drawn) [Example 1-15], which “pSTAT6 inhibition in the pharmacodynamic assay” value [2] is on record?
Answer: Its value is “exceptions”.

Question: Which “pSTAT6 inhibition in the pharmacodynamic assay” value [2] does the source give for `CCc1cc(O)c(F)cc1-c1ccc2c(-c3nc4c([nH]3)CCN(CCNC3(C#N)CC3)C4)n[nH]c2c1` [Example 3-1] here?
Answer: Its value is “exceptions”.

Question: For `CCc1cc(O)c(F)cc1-c1ccc2c(-c3nc4c([nH]3)CCN(CCNC3CC(OC)C3)C4)n[nH]c2c1` (stereo not drawn) [Example 3-30], which “BEAS-2B pIC50” value [1] is on record?
Answer: The value was “A (A represents a pIC50 value≥8 (IC50≤10 nM))”.

Question: Which “Lung to Plasma ratio Assay 4” value [3] does the source give for `CCc1cc(O)c(F)cc1-c1ccc2c(-c3nc4c([nH]3)CCN(CCN(C)CC(C)C)C4)n[nH]c2c1` [Example 3-33] here?
Answer: Its value is “A (A denotes a ratio>100)”.

Question: With `CCc1cc(O)c(F)cc1-c1ccc2c(-c3nc4c([nH]3)CCN(CCNC3CC(OC)C3)C4)n[nH]c2c1` (stereo not drawn) [Example 8, 5-Ethyl-2-fluoro-4-(3-(5-(2-((3-methoxycyclobutyl)amino)ethyl)-4,5,6,7-tetrahydro-1H-imidazo[4,5-c]pyridin-2-yl)-1H-indazol-6-yl)phenol] as the compound, how does the “Lung to Plasma ratio Assay 4” value [3] read?
Answer: The value was “A (A denotes a ratio>100)”.

Question: For `CCc1cc(O)c(F)cc1-c1ccc2c(-c3nc4c([nH]3)CCN(C[C@@H]3CCCN3C)C4)n[nH]c2c1` [Example 11, (S)-5-ethyl-2-fluoro-4-(3-(5-((1-methylpyrrolidin-2-yl)methyl)-4,5,6,7-tetrahydro-1H-imidazo[4,5-c]pyridin-2-yl)-1H-indazol-6-yl)phenol], which “Lung to Plasma ratio Assay 4” value [3] is on record?
Answer: Its value is “A (A denotes a ratio>100)”.

Question: With `CCc1cc(O)c(F)cc1-c1ccc2c(-c3nc4c([nH]3)CCN(C[C@H]3COCCN3)C4)n[nH]c2c1` [Example 13, (S)-5-Ethyl-2-fluoro-4-(3-(5-(morpholin-3-ylmethyl)-4,5,6,7-tetrahydro-1H-imidazo[4,5-c]pyridin-2-yl)-1H-indazol-6-yl)phenol] as the compound, how does the “Lung to Plasma ratio Assay 4” value [3] read?
Answer: The value was “A (A denotes a ratio>100)”.

Question: For `CCc1cc(O)c(F)cc1-c1ccc2c(-c3nc4c([nH]3)CCN(C[C@@H]3COCCN3)C4)n[nH]c2c1` [Example 14, (R)-5-Ethyl-2-fluoro-4-(3-(5-(morpholin-3-ylmethyl)-4,5,6,7-tetrahydro-1H-imidazo[4,5-c]pyridin-2-yl)-1H-indazol-6-yl)phenol], which “Lung to Plasma ratio Assay 4” value [3] is on record?
Answer: Its value is “A (A denotes a ratio>100)”.

Question: Which “Lung to Plasma ratio Assay 4” value [3] does the source give for `CCc1cc(O)c(F)cc1-c1ccc2c(-c3nc4c([nH]3)CCN(CC3CNC3)C4)n[nH]c2c1` [Example 14-7] here?
Answer: The value was “A (A denotes a ratio>100)”.

Question: With `CCc1cc(O)c(F)cc1-c1ccc2c(-c3nc4c([nH]3)CCN(CCN3CCC[C@@H]3C)C4)n[nH]c2c1` [Example 15, (S)-5-ethyl-2-fluoro-4-(3-(5-(2-(2-methylpyrrolidin-1-yl)ethyl)-4,5,6,7-tetrahydro-1H-imidazo[4,5-c]pyridin-2-yl)-1H-indazol-6-yl)phenol] as the compound, how does the “Lung to Plasma ratio Assay 4” value [3] read?
Answer: The value was “A (A denotes a ratio>100)”.

Question: With `CCc1cc(O)c(F)cc1-c1ccc2c(-c3nc4c([nH]3)CCN(C3CC(C)C3)C4)n[nH]c2c1` (stereo not drawn) [Example C-1, 5-Ethyl-2-fluoro-4-(3-(5-(3-methylcyclobutyl)-4,5,6,7-tetrahydro-1H-imidazo[4,5-c]pyridin-2-yl)-1H-indazol-6-yl)phenol] as the compound, how does the “lung concentration smaller than that of the corresponding compound of the invention by a factor” value (from here on “lung concentration smaller than that”) [2] read?
Answer: Its value is 36.

Question: For `CCc1cc(O)c(F)cc1-c1ccc2c(-c3nc4c([nH]3)CCN(CCC(C)C)C4)n[nH]c2c1` [Example C-2, reference compound], which “lung concentration smaller than that” value [2] is on record?
Answer: The value was 52.

Question: And the “fold less potent than the corresponding compound of the invention in the BEAS-2B cellular assay” value [1]?
Answer: The value was 6 fold.

Question: Which “lung concentration smaller than that” value [2] does the source give for `CCc1cc(O)c(F)cc1-c1ccc2c(-c3nc4c([nH]3)CCN(CC3CCCOC3)C4)n[nH]c2c1` (stereo not drawn) [Example C-3, reference compound] here?
Answer: The value was 13.

Question: What about the “fold less potent than the corresponding compound of the invention in the BEAS-2B cellular assay” value [1] of the same compound?
Answer: Its value is 3 fold.

Question: Which “lung concentration smaller than that” value [2] does the source give for `CCc1cc(O)c(F)cc1-c1ccc2c(-c3nc4c([nH]3)CCN(C3CCC(C)CC3)C4)n[nH]c2c1` (stereo not drawn) [Example C-4, reference compound] here?
Answer: Its value is 23.

Question: What about the “fold less potent than the corresponding compound of the invention in the BEAS-2B cellular assay” value [1] of the same compound?
Answer: The value was 6 fold.

Question: For `CCc1cc(O)c(F)cc1-c1ccc2c(-c3nc4c([nH]3)CCN(C3CCN(C)CC3)C4)n[nH]c2c1` [crystalline hydrate, Crystalline hydrate of 5-ethyl-2-fluoro-4-(3-(5-(1-methylpiperidin-4-yl)-4,5,6,7-tetrahydro-1H-imidazo[4,5-c]pyridin-2-yl)-1H-indazol-6-yl)phenol], which weight gain ([4]; humidity range of 5% to 90% relative humidity, 25° C) is on record?
Answer: The weight gain was “less than 0.12%”.

Question: What about the hygroscopicity ([4]; two cycles of sorption and desorption, 5% to 90% RH) of the same compound?
Answer: Its hygroscopicity is “non-hygroscopic”.
